Tested on: Dsg2^mut/mut mice
Assay: Cytokine arrays, cytokine expression in hearts of Dsg2^mut/mut mice treated with Bay 11-7082
Type: in vivo
From the text: Quantitative data (mean±SEM; n=5) for expression of selected cytokines in hearts of vehicle-treated wildtype (WT) mice, Dsg2^mut/mut mice and Dsg2^mut/mut mice treated with Bay 11-7082. * P<0.05 compared to WT; †P<0.05 for treated vs. untreated Dsg2^mut/mut mice.
To characterize production of chemical mediators of the immune response in ACM, we used arrays to measure 111 different cytokines in the hearts of Dsg2^mut/mut mice and compared the amounts to those measured in the hearts of WT mice and Dsg2^mut/mut mice treated with Bay 11-7082. We observed substantial expression of multiple cytokines in the hearts of Dsg2^mut/mut mice. […] Powerful inflammatory mediators were expressed in Dsg2^mut/mut hearts including IL-1β (up by ~13-fold compared to WT hearts), IFNγ (~5-fold), IL-12 (~6-fold) and TNFα (~2-fold). […] Finally, there were increases in some molecules that fulfill anti-inflammatory roles such as IL-1Ra (up by ~4-fold).

[1] = cytokine expression level, mouse heart

Compound: Cc1ccc(S(=O)(=O)/C=C/C#N)cc1 [Bay11-7082]
- LIX (CXCL5) level (ACM (Dsg2^mut/mut) mice treated with Bay 11-7082, result in words): markedly reduced
- OPN expression (Dsg2^mut/mut mice treated with Bay 11-7082, result in words): reduced
- Adiponectin, Dsg2^mut/mut (Bay11-7082) vs Dsg2^mut/mut [1]: <1
- Adiponectin, Dsg2^mut/mut (Bay11-7082) vs WT [1]: <1
- Amphiregulin, Dsg2^mut/mut (Bay11-7082) vs Dsg2^mut/mut [1]: <1
- Amphiregulin, Dsg2^mut/mut (Bay11-7082) vs WT [1]: <1
- Angiopoietin-1, Dsg2^mut/mut (Bay11-7082) vs Dsg2^mut/mut [1]: <1
- Angiopoietin-1, Dsg2^mut/mut (Bay11-7082) vs WT [1]: <1
- Angiopoietin-2, Dsg2^mut/mut (Bay11-7082) vs Dsg2^mut/mut [1]: 1-2
- Angiopoietin-2, Dsg2^mut/mut (Bay11-7082) vs WT [1]: <1
- Angiopoietin-like 3, Dsg2^mut/mut (Bay11-7082) vs Dsg2^mut/mut [1]: <1
- Angiopoietin-like 3, Dsg2^mut/mut (Bay11-7082) vs WT [1]: <1
- BAFF/BLyS/TNFSF13B, Dsg2^mut/mut (Bay11-7082) vs Dsg2^mut/mut [1]: <1
- BAFF/BLyS/TNFSF13B, Dsg2^mut/mut (Bay11-7082) vs WT [1]: <1
- C1qR1/CD93, Dsg2^mut/mut (Bay11-7082) vs Dsg2^mut/mut [1]: <1
- C1qR1/CD93, Dsg2^mut/mut (Bay11-7082) vs WT [1]: <1
- C-Reactive Protein/CRP, Dsg2^mut/mut (Bay11-7082) vs Dsg2^mut/mut [1]: <1
- C-Reactive Protein/CRP, Dsg2^mut/mut (Bay11-7082) vs WT [1]: <1
- CCL2/JE/MCP-1, Dsg2^mut/mut (Bay11-7082) vs Dsg2^mut/mut [1]: <1
- CCL2/JE/MCP-1, Dsg2^mut/mut (Bay11-7082) vs WT [1]: <1
- CCL3/CCL4/MIP-1a/B, Dsg2^mut/mut (Bay11-7082) vs Dsg2^mut/mut [1]: <1
- CCL3/CCL4/MIP-1a/B, Dsg2^mut/mut (Bay11-7082) vs WT [1]: <1
- CCL5/RANTES, Dsg2^mut/mut (Bay11-7082) vs Dsg2^mut/mut [1]: <1
- CCL5/RANTES, Dsg2^mut/mut (Bay11-7082) vs WT [1]: <1
- CCL6/C10, Dsg2^mut/mut (Bay11-7082) vs Dsg2^mut/mut [1]: <1
- CCL6/C10, Dsg2^mut/mut (Bay11-7082) vs WT [1]: <1
- CCL17/TARC, Dsg2^mut/mut (Bay11-7082) vs Dsg2^mut/mut [1]: <1
- CCL17/TARC, Dsg2^mut/mut (Bay11-7082) vs WT [1]: <1
- CCL19/MIP-3B, Dsg2^mut/mut (Bay11-7082) vs Dsg2^mut/mut [1]: <1
- CCL19/MIP-3B, Dsg2^mut/mut (Bay11-7082) vs WT [1]: <1
- CCL20/MIP-3a, Dsg2^mut/mut (Bay11-7082) vs Dsg2^mut/mut [1]: <1
- CCL20/MIP-3a, Dsg2^mut/mut (Bay11-7082) vs WT [1]: <1
- CCL21/6Ckine, Dsg2^mut/mut (Bay11-7082) vs Dsg2^mut/mut [1]: <1
- CCL21/6Ckine, Dsg2^mut/mut (Bay11-7082) vs WT [1]: <1
- CCL22/MDC, Dsg2^mut/mut (Bay11-7082) vs Dsg2^mut/mut [1]: <1
- CCL22/MDC, Dsg2^mut/mut (Bay11-7082) vs WT [1]: <1
- CD14, Dsg2^mut/mut (Bay11-7082) vs Dsg2^mut/mut [1]: 1-2
- CD14, Dsg2^mut/mut (Bay11-7082) vs WT [1]: <1
- CD40/TNFRSF5, Dsg2^mut/mut (Bay11-7082) vs Dsg2^mut/mut [1]: <1
- CD40/TNFRSF5, Dsg2^mut/mut (Bay11-7082) vs WT [1]: <1
- CD160, Dsg2^mut/mut (Bay11-7082) vs Dsg2^mut/mut [1]: <1
- CD160, Dsg2^mut/mut (Bay11-7082) vs WT [1]: <1
- CX3CL1/Fractalkine, Dsg2^mut/mut (Bay11-7082) vs Dsg2^mut/mut [1]: <1
- CX3CL1/Fractalkine, Dsg2^mut/mut (Bay11-7082) vs WT [1]: <1
- CXCL9/MIG, Dsg2^mut/mut (Bay11-7082) vs Dsg2^mut/mut [1]: <1
- CXCL9/MIG, Dsg2^mut/mut (Bay11-7082) vs WT [1]: <1
- CXCL13/BLC/BCA-1, Dsg2^mut/mut (Bay11-7082) vs Dsg2^mut/mut [1]: <1
- CXCL13/BLC/BCA-1, Dsg2^mut/mut (Bay11-7082) vs WT [1]: 2-4
- CXCL16, Dsg2^mut/mut (Bay11-7082) vs Dsg2^mut/mut [1]: <1
- CXCL16, Dsg2^mut/mut (Bay11-7082) vs WT [1]: <1
- Chemerin, Dsg2^mut/mut (Bay11-7082) vs Dsg2^mut/mut [1]: <1
- Chemerin, Dsg2^mut/mut (Bay11-7082) vs WT [1]: <1
- Chitinase 3-like 1, Dsg2^mut/mut (Bay11-7082) vs Dsg2^mut/mut [1]: <1
- Chitinase 3-like 1, Dsg2^mut/mut (Bay11-7082) vs WT [1]: <1
- Coagulation Factor III/Tissue Factor, Dsg2^mut/mut (Bay11-7082) vs Dsg2^mut/mut [1]: <1
- Coagulation Factor III/Tissue Factor, Dsg2^mut/mut (Bay11-7082) vs WT [1]: <1
- Complement Component C5/C5a, Dsg2^mut/mut (Bay11-7082) vs Dsg2^mut/mut [1]: <1
- Complement Component C5/C5a, Dsg2^mut/mut (Bay11-7082) vs WT [1]: <1
- Complement Factor D, Dsg2^mut/mut (Bay11-7082) vs Dsg2^mut/mut [1]: <1
- Complement Factor D, Dsg2^mut/mut (Bay11-7082) vs WT [1]: <1
- Cystatin C, Dsg2^mut/mut (Bay11-7082) vs Dsg2^mut/mut [1]: <1
- Cystatin C, Dsg2^mut/mut (Bay11-7082) vs WT [1]: <1
- DKK-1, Dsg2^mut/mut (Bay11-7082) vs Dsg2^mut/mut [1]: <1
- DKK-1, Dsg2^mut/mut (Bay11-7082) vs WT [1]: <1
- DPPIV/CD26, Dsg2^mut/mut (Bay11-7082) vs Dsg2^mut/mut [1]: <1
- DPPIV/CD26, Dsg2^mut/mut (Bay11-7082) vs WT [1]: 1-2
- E-Selectin/CD62E, Dsg2^mut/mut (Bay11-7082) vs Dsg2^mut/mut [1]: <1
- E-Selectin/CD62E, Dsg2^mut/mut (Bay11-7082) vs WT [1]: <1
- EGF, Dsg2^mut/mut (Bay11-7082) vs Dsg2^mut/mut [1]: <1
- EGF, Dsg2^mut/mut (Bay11-7082) vs WT [1]: 1-2
- Endoglin/CD105, Dsg2^mut/mut (Bay11-7082) vs Dsg2^mut/mut [1]: <1
- Endoglin/CD105, Dsg2^mut/mut (Bay11-7082) vs WT [1]: <1
- Endostatin, Dsg2^mut/mut (Bay11-7082) vs Dsg2^mut/mut [1]: <1
- Endostatin, Dsg2^mut/mut (Bay11-7082) vs WT [1]: <1
- Eotaxin (CCL11), Dsg2^mut/mut (Bay11-7082) vs Dsg2^mut/mut [1]: <1
- Eotaxin (CCL11), Dsg2^mut/mut (Bay11-7082) vs WT [1]: <1
- FGF acidic, Dsg2^mut/mut (Bay11-7082) vs Dsg2^mut/mut [1]: <1
- FGF acidic, Dsg2^mut/mut (Bay11-7082) vs WT [1]: <1
- FGF-21, Dsg2^mut/mut (Bay11-7082) vs Dsg2^mut/mut [1]: <1
- FGF-21, Dsg2^mut/mut (Bay11-7082) vs WT [1]: <1
- FLt-3 Ligand, Dsg2^mut/mut (Bay11-7082) vs Dsg2^mut/mut [1]: <1
- FLt-3 Ligand, Dsg2^mut/mut (Bay11-7082) vs WT [1]: <1
- Fetuin A/AHSG, Dsg2^mut/mut (Bay11-7082) vs Dsg2^mut/mut [1]: <1
- Fetuin A/AHSG, Dsg2^mut/mut (Bay11-7082) vs WT [1]: <1
- G-CSF, Dsg2^mut/mut (Bay11-7082) vs Dsg2^mut/mut [1]: <1
- G-CSF, Dsg2^mut/mut (Bay11-7082) vs WT [1]: 1-2
- GDF-15, Dsg2^mut/mut (Bay11-7082) vs Dsg2^mut/mut [1]: <1
- GDF-15, Dsg2^mut/mut (Bay11-7082) vs WT [1]: <1
- GM-CSF, Dsg2^mut/mut (Bay11-7082) vs Dsg2^mut/mut [1]: <1
- GM-CSF, Dsg2^mut/mut (Bay11-7082) vs WT [1]: <1
- Gas 6, Dsg2^mut/mut (Bay11-7082) vs Dsg2^mut/mut [1]: <1
- Gas 6, Dsg2^mut/mut (Bay11-7082) vs WT [1]: <1
- HGF, Dsg2^mut/mut (Bay11-7082) vs Dsg2^mut/mut [1]: <1
- HGF, Dsg2^mut/mut (Bay11-7082) vs WT [1]: 4-6
- I-TAC (CXCL11), Dsg2^mut/mut (Bay11-7082) vs Dsg2^mut/mut [1]: <1
- I-TAC (CXCL11), Dsg2^mut/mut (Bay11-7082) vs WT [1]: <1
- IFN-y, Dsg2^mut/mut (Bay11-7082) vs Dsg2^mut/mut [1]: <1
- IFN-y, Dsg2^mut/mut (Bay11-7082) vs WT [1]: 1-2
- IGFBP-1, Dsg2^mut/mut (Bay11-7082) vs Dsg2^mut/mut [1]: <1
- IGFBP-1, Dsg2^mut/mut (Bay11-7082) vs WT [1]: 1-2
- IGFBP-2, Dsg2^mut/mut (Bay11-7082) vs Dsg2^mut/mut [1]: <1
- IGFBP-2, Dsg2^mut/mut (Bay11-7082) vs WT [1]: <1
- IGFBP-3, Dsg2^mut/mut (Bay11-7082) vs Dsg2^mut/mut [1]: <1
- IGFBP-3, Dsg2^mut/mut (Bay11-7082) vs WT [1]: <1
- IGFBP-5, Dsg2^mut/mut (Bay11-7082) vs Dsg2^mut/mut [1]: <1
- IGFBP-5, Dsg2^mut/mut (Bay11-7082) vs WT [1]: <1
- IGFBP-6, Dsg2^mut/mut (Bay11-7082) vs Dsg2^mut/mut [1]: <1
- IGFBP-6, Dsg2^mut/mut (Bay11-7082) vs WT [1]: <1
- IL-1a (IL-1F1), Dsg2^mut/mut (Bay11-7082) vs Dsg2^mut/mut [1]: <1
- IL-1a (IL-1F1), Dsg2^mut/mut (Bay11-7082) vs WT [1]: <1
- IL-1ra (IL-1F3), Dsg2^mut/mut (Bay11-7082) vs Dsg2^mut/mut [1]: <1
- IL-1ra (IL-1F3), Dsg2^mut/mut (Bay11-7082) vs WT [1]: 1-2
